According to patent publication US20060067924A1, “Probiotic bacteria and methods” (priority 2003, published 2006):
Entries after “also recorded” stand apart in the source; their conditions may differ.

Experiments:
[1] = test system: bacterial flora of the chicken ileum; assay: 16S rDNA clone library analysis of the ileal bacterial community of chickens fed diets with feed additives; format: in vivo
[2] = pigs, 50 ppm, compared to controls; cited from earlier work
cecum flora = assay: 16S rDNA clone library analysis of the cecum flora, monensin treatment; format: in vivo, chicken; conditions: 28 d
[3] = test system: bacterial community of the chicken ileum; assay: T-RFLP analysis (HaeIII) of amplified 16S rDNA from the ileum of chickens fed different diets; format: in vivo; conditions: for main bacterial composition present in TRFLP peaks in ileum: names in order of relative abundance of peaks; for Clostridiales, % peak areas / Lactobacillaceae, % peak areas: T-RFLP
Protocol: A comparative study of bacterial community of the chicken ileum was carried out using 16S rDNA gene analysis. The intestinal microbiota is part of a complex ecosystem. This study examined the effect of the growth promoting antibiotic, virginiamycin, and other commercial diets on the distribution and community structure of intestinal bacterial flora. Bacterial communities in the intestines of chickens were compared using terminal restriction fragment length polymorphism (T-RFLP) analysis targeting the 16S ribosomal DNA combining with 16S rDNA cloning library. The chickens were fed 4 different diets including a commercial corn-soy diet, corn-soy plus growth promotant diet, corn-soy plus monensin, and a wheat diet. A group was also administrated a probiotic at 1 day age and fed a corn-soy diet. After feeding of the birds with the experimental diets, the differences in the bacterial community structures in the ileum were detected in the form of different profiles of terminal restriction fragments (T-RFs). Some of the T-RFs were commonly distributed, i.e., they were found in all samples, while others varied in distribution and correlated with specific diets. Significant differences were found between the control group (corn-soy diet) and the experimental groups by pairwise-analyzing the T-RFs=profiles.
The bacterial populations are identified using genetic analysis of the 16S RNA gene by GeneScan-Terminal Restriction Fragment Length Polymorphism (T-RFLP) using 16S universal primers and cloning and DNA sequencing of 16S PCR products. GeneScan T-RFLP requires the following steps: labeling the PCR product by using labeled primers; digesting the PCR product with restriction enzymes; separating fragments on gel; and detecting terminal fragments. The sizes of terminal fragments can be calculated based on DNA sequence analysis.
In some experiments, the PCR products were loaded onto a gel from which bands were cut and eluted in 35 μl of sterile filtered distilled water using a QIAquick gel extraction kit (Qiagen, Chatsworth, Calif.). The concentrations of the fluorescently labeled PCR products were measured on a spectrophotometer (DU Series 500, Beckman, Fullerton, Calif.). About 100 ng of purified PCR products was digested in a 10 μl volume for 4 hours at 37 C with 10 U of HaeIII (isoschizomer BsuRI; Fermentas, MBI). Restriction digests were desalted with the QIAquick Nucleotide Removal Kit (Qiagen). The fluorescently labeled terminal restriction fragments (T-RFs) were analyzed by electrophoresis on an automatic sequence analyzer (ABI PRISM 310 DNA Sequencer; PE Biosystems, Foster City, Calif.) in GeneScan mode. Aliquots (2 ul) of T-RFs were mixed with 2 μl of deionized formamide, 0.5 μl of DNA fragment length size standard GS-500 (PE Biosystems). The T-RF mixture was denatured at 94° C. for 5 min and immediately chilled on ice prior to electrophoresis. After electrophoresis, the lengths of fluorescently labeled T-RFs were determined by comparison with internal standards by using GeneScan software (ABI). For each sample, peaks over a threshold of 50 units above background fluorescence were analyzed by manually aligning fragments to the size standard. To avoid detection of primers and uncertainties of size determination, terminal fragments smaller than 35 bp and larger than 525 bp were excluded from the analysis. Reproducibility of patterns was confirmed for repeated T-RFLP analysis of 16S gene amplification using the same DNA extracts from pooled samples.
The information index (Shannon and Weaver (1963) “The Mathematical Theory of Communication,” p. 117, University of Illinois Press, Urbana, Ill.) was used to initially evaluate the diversity of the microbial communities. [formula] Where n is possible categories in a data set and that their proportions are pi, . . . , pn. The H values are the measure of diversity for this system. […]

[4] = test system: Lachnospira multiparus-like organisms; conditions: monensin supplementation; cited from earlier work
[5] = ileum, 7 days of age, 16S rDNA clone library
[6] = ileum, 28 days of age, 16S rDNA clone library
[7] = vs control fed the same feed without the antibiotic

virginiamycin
Lactobacillus species in the ileum vs controls ([1]; 28 and 49 days of age): significantly fewer
enhancement in feed conversion [2]: 7%
improvement in growth rate [2]: 10%

CC[C@@]1([C@@H]2O[C@@H]([C@H]3O[C@@](O)(CO)[C@H](C)C[C@@H]3C)C[C@@H]2C)CC[C@H]([C@]2(C)CC[C@]3(C[C@H](O)[C@@H](C)[C@@H]([C@@H](C)[C@@H](OC)[C@H](C)C(=O)O)O3)O2)O1 [Monensin, monensin]
cecum flora: Actinobacterium (cecum flora): 43%
cecum flora: Bacteroides (cecum flora): 1%
cecum flora: Clostridium spp. (cecum flora): 27%
cecum flora: Eubacterium (cecum flora): 12%
cecum flora: Lactobacillus spp. (cecum flora): 6%
cecum flora: Ruminococcus (cecum flora): 10%
ileum flora: Clostridium spp. ([1]; 3 d): 1 [17] %
ileum flora: L. crispatus ([1]; 3 d): 1 [4] %
ileum flora: L. salivarius ([1]; 3 d): 1%
ileum: Clostridiaceae ([1]; 3 d): 2 [17] %
ileum: Enterococcus ([1]; 3 d): 9 [3] %
ileum: Lactobacillus spp. ([1]; 3 d): 3 [60] %
ileum: α-Proteobacteria ([1]; 3 d): 1 [1] %
ileum: β-Proteobacteria ([1]; 3 d): 3 [5] %
ileum: δ-Probeobacteria ([1]; 3 d): 82 [2] %
ileum flora: C. irregularis ([1]; 7 d): 45%
ileum flora: C. lituseburense ([1]; 7 d): 24%
ileum flora: Clostridium spp. ([1]; 7 d): 13 [1] %
ileum flora: L. acidophilus ([1]; 7 d): 4 [57] %
ileum flora: L. crispatus ([1]; 7 d): 4 [1] %
ileum flora: L. reuteri ([1]; 7 d): 3%
ileum: Clostridiaceae ([1]; 7 d): 84 [1] %
ileum: Enterococcus ([1]; 7 d): 3 [16] %
ileum: Lactobacillus spp. ([1]; 7 d): 11 [64] %
ileum flora: C. lituseburense ([1]; 14 d): 31%
ileum flora: L. crispatus ([1]; 14 d): 17 [8] %
ileum: Bifidobacter ([1]; 14 d): 2%
ileum: Clostridiaceae ([1]; 14 d): 44 [7] %
ileum: Enterococcus ([1]; 14 d): 33 [13] %
ileum: Lactobacillus spp. ([1]; 14 d): 21 [64] %
ileum flora: C. irregularis ([1]; 21 d): 19%
ileum flora: C. lituseburense ([1]; 21 d): 22%
ileum flora: L. crispatus ([1]; 21 d): 19 [3] %
ileum flora: L. salivarius ([1]; 21 d): 7 [5] %
ileum: Bacteroides ([1]; 21 d): 2 [3] %
ileum: Clostridiaceae ([1]; 21 d): 47 [9] %
ileum: Enterococcus ([1]; 21 d): 11 [3] %
ileum: Lactobacillus spp. ([1]; 21 d): 27 [66] %
ileum flora: C. irregularis ([1]; 28 d): 53%
ileum flora: C. lituseburense ([1]; 28 d): 7%
ileum flora: Clostridium spp. ([1]; 28 d): 1 [6] %
ileum flora: L. crispatus ([1]; 28 d): 17 [75] %
ileum flora: L. reuteri ([1]; 28 d): 11 [7] %
ileum flora: L. salivarius ([1]; 28 d): 2 [2] %
ileum: Bacillus ([1]; 28 d): 1%
ileum: Clostridiaceae ([1]; 28 d): 62 [7] %
ileum: Enterococcus ([1]; 28 d): 1 [3] %
ileum: Lactobacillus spp. ([1]; 28 d): 32 [88] %
ileum: Streptococcus ([1]; 28 d): 1 [1] %
ileum flora: C. irregularis ([1]; 49 d): 3%
ileum flora: C. lituseburense ([1]; 49 d): 42%
ileum flora: Clostridium spp. ([1]; 49 d): 1 [19] %
ileum flora: L. aviaries ([1]; 49 d): 16%
ileum flora: L. crispatus ([1]; 49 d): 20 [36] %
ileum flora: L. reuteri ([1]; 49 d): 5 [1] %
ileum flora: L. salivarius ([1]; 49 d): 3 [28] %
ileum: Bacillus ([1]; 49 d): 5 [4] %
ileum: Bacteroides ([1]; 49 d): 1 [1] %
ileum: Clostridiaceae ([1]; 49 d): 46 [19] %
ileum: Enterococcus ([1]; 49 d): 5 [2] %
ileum: Lactobacillus spp. ([1]; 49 d): 45 [70] %
ileum: Streptococcus ([1]; 49 d): 5%
Clostridiales, % of seq [1, 5]: 82.4%
Enterococcus/Streptococcus, % of seq [1, 5]: 2.7%
Lactobacillaceae, % of seq [1, 5]: 12.9%
Proteobacteria α, % of seq [1, 5]: 1.35%
Bacillaceae, % of seq [1, 6]: 1.05%
Clostridiales, % of seq [1, 6]: 63.2%
Enterococcus/Streptococcus, % of seq [1, 6]: 2.1%
Lactobacillaceae, % of seq [1, 6]: 31.6%
Proteobacteria α, % of seq [1, 6]: 2.1%
clostridial sequences [1, 7]: increased
overall numbers of Lactobacillus sequences [1, 7]: reduced
main bacterial composition present in TRFLP peaks in ileum ([3]; 3 day): Enterococcus sp; also recorded: E. coli
main bacterial composition present in TRFLP peaks in ileum ([3]; 7 day): C. irregularis; also recorded: C. lituseburense; also recorded: L. acidophilus
main bacterial composition present in TRFLP peaks in ileum ([3]; 14 day): C. lituseburense; also recorded: C. irregularis; also recorded: Clostridium sp; also recorded: L. crispatus
main bacterial composition present in TRFLP peaks in ileum ([3]; 21 day): C. irregularis; also recorded: C. lituseburense; also recorded: L. crispatus
main bacterial composition present in TRFLP peaks in ileum ([3]; 28 day): C. irregularis; also recorded: L. crispatus; also recorded: L. reuteri
main bacterial composition present in TRFLP peaks in ileum ([3]; 49 day): C. lituseburense; also recorded: L. crispatus
inhibition of C. irregularis ([3]; chicken ileum): not inhibited
Clostridiales, % peak areas ([3]; ileum, 7 days of age): 92.89%
Lactobacillaceae, % peak areas ([3]; ileum, 7 days of age): 7.1%
Clostridiales, % peak areas ([3]; ileum, 28 days of age): 73.2%
Lactobacillaceae, % peak areas ([3]; ileum, 28 days of age): 27.2%
relative peak areas of Lactobacillus ([3]; ileum, whole group (control 73.22%)): 19.25%
decrease of relative numbers of Lachnospira multiparus-like organisms [4]: about 2 fold
